According to BindingDB's records for doi:10.1021/acs.jmedchem.1c00511 (2021):

Molecular target: Vitamin K-dependent protein C (Homo sapiens) (UniProt P04070)
Assay: Inhibition of human APC using pyroGlu-Pro-Arg-p-nitroaniline-HCl as substrate measured after 5 mins by plate reader analysis

Chain of Vitamin K-dependent protein C (Homo sapiens) (P04070 whole entry, looked up): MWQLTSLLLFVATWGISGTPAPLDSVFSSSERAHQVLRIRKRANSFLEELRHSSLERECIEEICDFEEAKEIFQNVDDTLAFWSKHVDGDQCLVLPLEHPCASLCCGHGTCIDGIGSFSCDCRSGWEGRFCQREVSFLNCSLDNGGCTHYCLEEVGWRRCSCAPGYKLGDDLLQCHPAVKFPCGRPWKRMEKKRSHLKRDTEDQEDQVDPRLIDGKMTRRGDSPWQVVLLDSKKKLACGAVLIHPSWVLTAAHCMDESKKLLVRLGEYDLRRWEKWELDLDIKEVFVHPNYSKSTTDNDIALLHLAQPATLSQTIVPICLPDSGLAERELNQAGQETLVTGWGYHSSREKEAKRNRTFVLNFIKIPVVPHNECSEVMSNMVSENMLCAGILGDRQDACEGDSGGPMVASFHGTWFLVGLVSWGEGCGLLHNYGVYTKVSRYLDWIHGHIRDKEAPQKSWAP

IC50: > 30 µM
SMILES: N#Cc1cccc(C(NCC2CC2)c2ccc(F)c(NC(=O)c3cc(C(F)(F)F)nn3-c3cccc(CN)c3)c2)c1 (single isomer, unassigned; (+)) [(+)-1-(3-(aminomethyl)phenyl)-N-(5-((3-cyanophenyl)(cyclopropyl-methylamino)methyl)-2-fluorophenyl)-3-(trifluoromethyl)-1H-pyrazole-5-carboxamide]
